# Experimental data: patent publication US6855730B2, “3-methylidenyl-2-indolinone modulators of protein kinase” (Sugen, Inc., priority 1998, dated 2005)
# Molecular target: T1, PDGFR-β (Homo sapiens, UniProt P09619)
# T1 construct: host or cells: NIH 3T3
# Assay: Biochemical PDGFR assay (ELISA, PDGFR-β expressing NIH 3T3 cell lysate)
# Details: read-out: bio PDGF IC50
# Procedure, shortened: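 Phosphorylation was read by ELISA (anti-phosphotyrosine serum, peroxidase secondary, ABTS at 410 nm) after a 30 min room-temperature reaction with 20 μM ATP, EDTA-stopped. Kinase was lysate-derived PDGFR-β (NIH 3T3) immobilised via 28D4C10 antibody, compound added 30 min before ATP.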
# T1 sequence (P09619 33-1106): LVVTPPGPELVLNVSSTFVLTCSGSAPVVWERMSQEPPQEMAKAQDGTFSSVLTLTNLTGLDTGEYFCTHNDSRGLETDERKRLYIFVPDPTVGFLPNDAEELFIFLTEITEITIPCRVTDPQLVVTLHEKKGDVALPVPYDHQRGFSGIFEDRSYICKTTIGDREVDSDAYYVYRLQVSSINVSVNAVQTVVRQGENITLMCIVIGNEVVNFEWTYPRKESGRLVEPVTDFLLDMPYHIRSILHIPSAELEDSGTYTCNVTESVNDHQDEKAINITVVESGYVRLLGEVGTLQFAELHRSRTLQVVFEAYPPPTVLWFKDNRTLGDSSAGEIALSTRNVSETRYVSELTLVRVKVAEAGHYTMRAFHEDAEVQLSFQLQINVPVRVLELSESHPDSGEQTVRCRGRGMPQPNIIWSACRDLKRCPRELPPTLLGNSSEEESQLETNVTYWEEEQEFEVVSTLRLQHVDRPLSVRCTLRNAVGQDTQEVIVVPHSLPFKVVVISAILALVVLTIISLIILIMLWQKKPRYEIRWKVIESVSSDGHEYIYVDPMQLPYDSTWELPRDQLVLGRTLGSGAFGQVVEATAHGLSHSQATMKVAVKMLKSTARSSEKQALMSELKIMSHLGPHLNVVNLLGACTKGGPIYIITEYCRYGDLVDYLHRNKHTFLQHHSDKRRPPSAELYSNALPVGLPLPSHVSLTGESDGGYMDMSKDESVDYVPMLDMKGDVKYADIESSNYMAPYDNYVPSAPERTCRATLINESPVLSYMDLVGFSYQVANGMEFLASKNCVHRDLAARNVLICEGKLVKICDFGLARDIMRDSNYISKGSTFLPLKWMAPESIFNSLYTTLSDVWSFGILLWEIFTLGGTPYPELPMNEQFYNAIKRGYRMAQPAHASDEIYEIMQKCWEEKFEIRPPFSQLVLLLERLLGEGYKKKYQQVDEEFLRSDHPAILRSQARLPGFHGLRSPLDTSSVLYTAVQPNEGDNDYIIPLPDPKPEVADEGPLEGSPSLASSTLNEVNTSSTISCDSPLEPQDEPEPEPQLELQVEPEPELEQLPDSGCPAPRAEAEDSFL
row,SMILES,IC50 [nM]
1,"Cc1c[nH]c(/C=C2\C(=O)Nc3ccc(Br)cc32)c1CCC(=O)O [Example 220, 3-[2-(5-Bromo-2-oxo-1,2-dihydroindol-3-ylidenemethyl)-4-methyl-1H-pyrrol-3-yl]-propionic acid]",620
2,"Cc1cccc2c1/C(=C/c1[nH]c3c(c1CCC(=O)O)CCCC3)C(=O)N2 [Example 193, 3-[2-(4-Methyl-2-oxo-1,2-dihydroindol-3-ylidenemethyl)-4,5,6,7-tetrahydro-1H-indol-3-yl]-propionic acid]",44600
3,"Cc1c[nH]c(C=C2C(=O)Nc3cc(Cl)ccc32)c1CCC(=O)O [Example 219, 3-[2-(6-Chloro-2-oxo-1,2-dihydroindol-3-ylidenemethyl)-4-methyl-1H-pyrrol-3-yl]-propionic acid]",470
4,"O=C(O)CCc1c(/C=C2\C(=O)Nc3ccc(Br)cc32)[nH]c2c1CCCC2 [Example 192, 3-[2-(5-Bromo-2-oxo-1,2-dihydroindol-3-ylidenemethyl)-4,5,6,7-tetrahydro-1H-indol-3yl]-propionic acid]",4
5,"CC(C)NS(=O)(=O)c1ccc2c(c1)C(=Cc1[nH]c3c(c1CCC(=O)O)CCCC3)C(=O)N2 [Example 208, 3-[2-(5-Isopropylaminosulfonyl-2-oxo-1,2-dihydroindol-3-ylidenemethyl)-4,5,6,7-tetrahydro-1H-indol-3-yl]-propionic acid]",23400
6,"O=C1Nc2ccc(N=Cc3cc4ccccc4[nH]3)cc2C1=Cc1cc2ccccc2[nH]1 [Example 171, 3-(1H-indol-2-ylmethylene)-5-[(1H-indol-2-ylmethylene)-amino]-1,3-dihydroindol-2-one]",68600
7,"O=C(O)CCc1c(/C=C2\C(=O)Nc3ccccc32)[nH]c2c1CCCC2 [Example 190, 3-[2-(2-Oxo-1,2-dihydro-indol-3-ylidenemethyl)-4,5,6,7-tetrahydro-1H-indol-3-yl]-propionic acid]",2080
8,"COc1ccc2c(c1)NC(=O)/C2=C\c1[nH]cc(C)c1CCC(=O)O [Example 217, 3-[2-(6-Methoxy-2-oxo-1,2-dihydroindol-3-ylidenemethyl)-4-methyl-1H-pyrrol-3-yl]-propionic acid]",210

# Second part, the compound after the results:
row,IC50 [nM],SMILES
1,3750,"COc1ccc2c(c1)/C(=C/c1[nH]cc(C)c1CCC(=O)O)C(=O)N2 [Example 222, 3-[2-(5-Methoxy-2-oxo-1,2-dihydroindol-3-ylidenemethyl)-4-methyl-1H-pyrrol-3-yl]-propionic acid]"
2,680,"COc1cccc(-c2ccc3c(c2)NC(=O)/C3=C\c2[nH]c3c(c2CCC(=O)O)CCCC3)c1 [Example 204, 3-{2-[6-(3-Methoxyphenyl)-2-oxo-1,2-dihydro-indol-3-ylidenemethyl]-4,5,6,7-tetrahydro-1H-indol-3-yl}-propionic acid]"
3,> 100000,"O=C(O)CCc1ccccc1/C=C1/C(=O)Nc2ccccc21 [Example 214, 3-[2-(2-Oxo-1,2-dihydroindol-3-ylidenemethyl)-phenyl]-propionic acid]"
4,> 100000,"COc1c(C(C)C)cc(/C=C2/C(=O)Nc3ccc(Cl)cc32)cc1C(C)C [Example 2, 5-Chloro-3-(3,5-diisopropyl-4-methoxybenzylidene)-1,3-dihydroindol-2-one]"
5,40,"CN(C)CCCc1c(/C=C2\C(=O)Nc3ccccc32)[nH]c2c1CCCC2 [Example 198, 3-[3-(3-Dimethylaminopropyl)-4,5,6,7-tetrahydro-1H-indol-2-ylmethylene]-1,3-dihydroindol-2-one]"
